From ChEMBL document CHEMBL1201862, “PubChem BioAssay data set” (2004) come the findings set out here.

Assay [1] deals with DNA dC->dU-editing enzyme APOBEC-3G (Homo sapiens, UniProt Q9HC16). Nature of the assay: Dose Response confirmation of small molecule APOBEC3G DNA Deaminase Inhibitors via a fluorescence-based single-stranded DNA deaminase assay. [Related pubchem assays (depositor defined):AID493012, AID493028]. The class given is functional.
Assay [2] is described as follows: cells.
Assay [3] concerns the target Major prion protein (Homo sapiens, UniProt P04156). It is filed as functional, cell-based.
Assay [4] has as its target T1, Endoribonuclease toxin MazF (Escherichia coli K-12, UniProt P0AE70).
T1 sequence (P0AE70 whole entry): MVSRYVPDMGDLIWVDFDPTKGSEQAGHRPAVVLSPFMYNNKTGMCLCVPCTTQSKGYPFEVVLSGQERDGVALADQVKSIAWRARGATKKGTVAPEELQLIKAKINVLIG
Nature of the assay: substrate-only fluorescence increase artefacts – biochemical, single-stranded RNase substrate, counter-screen for MazEF activator project, dose response (AID 588502). The class given is functional. A general note: Counterscreens check selectivity or assay interference.

Assay [5] addresses T1, Endoribonuclease toxin MazF. Description: activation of MazEF endoribonuclease cleavage – biochemical, fluorescence, single-stranded RNA substrate, uHTS hits, dose response (AID 588481). It is filed as functional.
Assay [6] can be described thus: cells. It is filed as functional, cell-based.
A short description of assay [7]: cells. It is filed as functional, cell-based. The source holds these as a separate data set.
Assay [8] can be described thus: A cytotoxicity screen of small molecule inhibitors of the PhoP region in Salmonella typhi identified in the primary screen. [Related pubchem assays: 1850, 1864, 1985 ]. It is filed as functional.
Assay [9] has as its target Peroxisome proliferator-activated receptor gamma/Nuclear receptor coactivator 3 (Homo sapiens, UniProt P37231). The class given is functional.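 Further: agonist potency for raising coactivator recruitment to the receptor.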
In assay [10] the target is Peroxisome proliferator-activated receptor gamma/Nuclear receptor coactivator 2 (Homo sapiens, UniProt P37231). The class given is functional.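 Further: agonist potency for raising coactivator recruitment to the receptor.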
In assay [11] the target is Peroxisome proliferator-activated receptor gamma/Nuclear receptor coactivator 1 (Homo sapiens, UniProt P37231). The class given is functional.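 Further: agonist potency as compounds enhance coactivator SRC-1 recruitment to PPARgamma.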
The target in assay [12] is T2, Heat shock factor protein 1 (Mus musculus, UniProt P38532).
T2 sequence (P38532 whole entry): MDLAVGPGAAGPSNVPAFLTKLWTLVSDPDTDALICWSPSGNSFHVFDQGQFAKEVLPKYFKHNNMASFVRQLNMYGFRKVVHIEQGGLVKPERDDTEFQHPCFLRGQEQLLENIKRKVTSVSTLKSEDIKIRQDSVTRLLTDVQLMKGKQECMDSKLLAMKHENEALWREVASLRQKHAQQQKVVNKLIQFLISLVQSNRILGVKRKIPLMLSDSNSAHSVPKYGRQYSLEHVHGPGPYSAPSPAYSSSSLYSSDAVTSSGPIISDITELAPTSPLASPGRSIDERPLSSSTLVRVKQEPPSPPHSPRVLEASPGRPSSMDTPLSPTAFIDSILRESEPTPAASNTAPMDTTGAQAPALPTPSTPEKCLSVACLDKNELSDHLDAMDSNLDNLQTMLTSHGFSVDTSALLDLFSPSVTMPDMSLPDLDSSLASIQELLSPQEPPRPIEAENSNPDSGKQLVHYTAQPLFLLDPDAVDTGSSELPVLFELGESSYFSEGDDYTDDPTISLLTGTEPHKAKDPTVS
Nature of the assay: enhancement of HSF1-driven luciferase signal – cell-based, NIH3T3, luminescence, dose retest, confirmation (AID 435004).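 Further: stress induced by proteasome inhibitor MG132 added 30 min after compound; luciferase reporter driven by HSF1 response element in NIH3T3 cells; actives raise luminescence as potentiators of the MG132 stress response.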 The class given is functional.

For assay [13], the target named is T3, CAAX prenyl protease 2 (Saccharomyces cerevisiae S288c, UniProt Q03530).
T3 sequence (Q03530 whole entry): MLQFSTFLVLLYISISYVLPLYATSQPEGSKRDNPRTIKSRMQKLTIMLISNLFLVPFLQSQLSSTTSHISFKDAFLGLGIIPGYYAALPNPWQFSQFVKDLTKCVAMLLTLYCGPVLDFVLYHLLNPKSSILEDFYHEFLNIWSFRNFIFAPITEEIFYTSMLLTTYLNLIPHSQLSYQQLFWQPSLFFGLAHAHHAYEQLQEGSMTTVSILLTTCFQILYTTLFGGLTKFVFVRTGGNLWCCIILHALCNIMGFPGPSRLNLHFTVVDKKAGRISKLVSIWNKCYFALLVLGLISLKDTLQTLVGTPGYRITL
It is filed as biochemical.

Assay [14] in a line: viability of uninfected HEp-2 cells – cell-based, HTS, cytotoxicity control for RSV inhibitor project, dose response (AID 2410). The conditions noted are these: human respiratory syncytial virus. It is filed as functional.
Assay [15] is described as follows: Trypanosoma cruzi growth suppression in host cells – NIH3T3 host cells, beta-gal luminescence, confirmation (AID 2044).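 Further: intracellular parasites grown in NIH/3T3 mouse fibroblasts as host cells; luminescent beta-galactosidase reporter signal from transgenic T. cruzi replicating inside host cells; inhibitors lower the luminescence signal.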 It is filed as functional, cell-based.
Assay [16] concerns the target Beta-galactosidase (Escherichia coli, UniProt Q8VNN2). Nature of the assay: Dose response counterscreen for EBI2 assay utilizing the enzyme, b-galactosidase. The class given is functional.
A short description of assay [17]: NIH3T3 cell viability loss – ATP luminescence, mouse fibroblasts, counter-screen, dose response (AID 2010).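 Further: cells exposed to compound for about 90 hours before reading.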 The class given is functional, cell-based.
Assay [18] addresses Voltage-dependent T-type calcium channel subunit alpha-1H (Homo sapiens, UniProt O95180). It is filed as functional.
A short description of assay [19]: cells. The class given is functional, cell-based. The source holds these as a separate data set.
Assay [20] can be described thus: cells. The class given is functional, cell-based. The source holds these as a separate data set.
Assay [21] deals with H9c2. Description: cells. The class given is functional, cell-based. The following applies: Rattus norvegicus, H9c2, Myocardium.
In assay [22] the test system is Streptococcus. Nature of the assay: GAS UMAA2166 growth inhibition – luminescence, BacTiterGlo, counter-screen for streptokinase expression inhibitor project, dose response (AID 1915).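 Further: potency for reduction of bacterial viability or growth.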 The class given is functional, organism-based.
Assay [23] has as its system Streptococcus sp. 'group A'. Nature of the assay: Streptococcus pyogenes SK(-)GAS viability under kanamycin – luminescence, BacTiterGlo, confirmation, counter-screen for streptokinase expression inhibitor project, dose response (AID 1900). The class given is functional, organism-based.
Assay [24] has as its target T4, Streptokinase A (Streptococcus pyogenes serotype M1, UniProt P10520).
T4 sequence (P10520 whole entry): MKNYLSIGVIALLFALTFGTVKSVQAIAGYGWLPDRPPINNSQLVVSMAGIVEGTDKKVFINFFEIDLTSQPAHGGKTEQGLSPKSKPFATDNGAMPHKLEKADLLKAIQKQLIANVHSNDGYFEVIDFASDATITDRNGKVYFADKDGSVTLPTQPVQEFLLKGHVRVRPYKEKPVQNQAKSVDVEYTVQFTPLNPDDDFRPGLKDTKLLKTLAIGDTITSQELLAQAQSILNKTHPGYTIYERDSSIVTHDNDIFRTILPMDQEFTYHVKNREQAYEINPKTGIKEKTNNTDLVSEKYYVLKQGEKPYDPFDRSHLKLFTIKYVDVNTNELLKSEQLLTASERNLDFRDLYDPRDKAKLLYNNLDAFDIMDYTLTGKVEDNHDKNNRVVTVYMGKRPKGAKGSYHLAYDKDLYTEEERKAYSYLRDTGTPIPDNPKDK
Description: viability-normalized secreted streptokinase activity reduction – plasminogen activation absorbance, OD405, dose response (AID 1914).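 Further: secreted streptokinase activity via plasminogen activation per viability signal from cell pellet.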 The class given is functional, Streptococcus pyogenes M1 GAS.

The source made the active and inactive calls. Bounds are passed on as bounds.

The IC50 is the midpoint of a concentration-inhibition curve. One may read the EC50 as the concentration that produces a half-maximal response. As usually defined, the AC50 is the concentration giving half of the maximal activity seen. As a reminder, the CC50 is the concentration that lowers cell viability or growth by half.

`COc1ccc(-c2nc3ccccc3c(=O)n2NC(=S)N(C)C)cc1`: the IC50 in [1] was 35.1 µM (active).
`Cc1cc(OCc2ccccc2)ccc1C(=O)C1=C(O)C(=O)N(Cc2cccnc2)C1c1ccncc1` (stereo not given): the IC50 is > 138 µM (inactive) in [2] and 12.5 µM (inactive) in [3].
As to `CC1(C)CC(=O)C(=NNc2cc3c(cc2[N+](=O)[O-])OCCO3)C(=O)C1`, the results for the EC50 in assay [4] and in assay [5] were 29.6 µM (inactive) and > 99 µM (inactive), respectively.
In the case of `Oc1nc(Nc2ccccc2)nc(N2CCCCC2)n1`, in assay [6], the IC50 is > 29.9 µM (inactive). In addition, the EC50 in [7] is > 29.9 µM (inactive).
With `CC(=O)Nc1ccc(-c2ccnc(-c3ccc(NC(C)=O)cc3)n2)cc1`, the IC50 was > 138 µM (inactive) in [2] and 26.7 µM (inactive) in assay [3].
Turning to `COc1ccc(NC(=S)N2CCc3ccccc3C2)cc1OC`, the IC50 in assay [6] was > 29.9 µM (inactive). The EC50 in assay [7] was > 29.9 µM (inactive).
In the case of `CCS(=O)(=O)N1CCN(C2CCC(c3ccccc3)CC2)CC1` (stereo not given), the EC50 in assay [8] is > 50 µM (active); in assay [9] it was > 79.4 µM (not active); in assay [10], > 79.4 µM (not active); in assay [11], > 79.4 µM (not active).
Regarding `CC(=O)N1CCN(c2ccc(NC(=O)/C=C/c3ccccc3)cc2)CC1`, the EC50 in assay [9], in assay [10] and in assay [11] was > 79.4 µM (not active) each time.
For the molecule `COc1cccc(NC(=S)NC(=O)c2c(Cl)c(C)nn2C)c1`, the half-maximal effective concentration (EC50) in [9] is > 79.4 µM (not active); in [10] it was > 79.4 µM (not active); in [12], 63.7 µM (active); in assay [11], > 79.4 µM (not active).
As to `CCOC(=O)c1cc(-c2ccccc2)sc1NC(=O)C(C)Sc1nnnn1C` (stereo not given), the AC50 in assay [13] is 7.54 µM (active). For the same molecule, the CC50 in [14] is > 50 µM (active).
Regarding `CC(=O)c1ccc(N2CCN(C(=O)c3cc4c(C)nc5ccccc5c4o3)CC2)cc1`, the EC50 in assay [4] is 30.7 µM (inactive); in assay [5], > 99 µM (inactive).
For `Cc1nnc(SCc2ccccc2)n1N`, the EC50 in assay [9], in assay [10] and in assay [11] was > 79.4 µM (not active) each time.
On to `O=C(O)CSc1ncnc2sc3c(c12)CCCC3`, for which the IC50 in assay [2] is > 138 µM (inactive); in assay [3] it was 8.49 µM (active).
On to `Cc1ccc(OCC(=O)N2CCN(c3nnc(-c4ccccc4)c4ccccc34)CC2)cc1`, for which the EC50 in assay [15] is 1.92 µM (active); in assay [17], > 60 µM (not active); in assay [18] it was 3.8 µM (active). For the same molecule, the IC50 in [16] was > 80 µM (inactive).
As for `O=C(Nc1cccc(-c2cn3ccccc3n2)c1)C1CC1`, the EC50 in assay [19] and in assay [20] was > 350 µM (not active) each time. Also, the AC50 in [13] is 31.9 µM (active).
`COc1cccc(C(=O)Nc2nnc(SCC(=O)NC3CCCC3)s2)c1`: the AC50 in assay [13] is 52.3 µM (active).
As to `CSc1cc(-c2ccc(Cl)cc2)n(Cc2ccccc2)c(=O)c1C#N`, the EC50 in assay [9] is on record as 80.7 µM (not active); in assay [10], 41.4 µM (not active); in assay [11], 44.7 µM (not active).
With `CCc1cc2cccc(C)c2nc1SCC(=O)N1CCN(C(=O)c2ccco2)CC1`, the IC50 in assay [21] is > 79 µM (inactive); in assay [2] it was 54.9 µM (inactive); in assay [3], 10.7 µM (inactive).
Take `COc1ccccc1N1CCN(C(=O)/C=C/c2ccc(C)cc2)CC1`: the IC50 in [16] was > 80 µM (inactive). For the same molecule, the EC50 in assay [22] is > 150 µM (not active); in assay [23] it was > 150 µM (not active); in [24], 107 µM (active).
For `C[C@H]1COc2c3ccc(I)cc3nn21`, the figures for the IC50 in [2] and in [3] were > 138 µM (inactive) and 3.61 µM (active), respectively.
For the molecule `Cc1cc(C)c(C#N)c(=N)o1`, the half-maximal inhibitory concentration (IC50) in [1] is 37.4 µM (active).
With `Cc1cccc(N(CC(=O)N2CCN(c3ccc(F)cc3)CC2)S(C)(=O)=O)c1C`, the EC50 in assay [9], in assay [10] and in [11] was > 79.4 µM (not active) throughout.
For the molecule `CCN(CC)C(=O)CSc1nc(O)c(Cc2ccccc2)c(=O)n1-c1ccccc1`, the IC50 was > 138 µM (inactive) in assay [2] and 14.6 µM (inactive) in assay [3].
For the molecule `CC1C(Br)C(=O)NC(=O)N1Cc1ccccc1` (stereo not given), the EC50 in assay [9], in [10] and in assay [11] was > 79.4 µM (not active) each time.
